Data published in ChEMBL document CHEMBL1135019, “New generation dopaminergic agents. Part 8: heterocyclic bioisosteres that exploit the 7-OH-2-(aminomethyl)chroman D(2) template” (Bioorg Med Chem Lett, 2002).

Legend:
[1] = target: D(2) dopamine receptor (Rattus norvegicus) (UniProt P61169); experiment: Ratio D2 partial agonist, Ki(D2 Low)/Ki(D2 High), to compare a compounds estimated intrinsic activity.
D(2) dopamine receptor [2] = target: D(2) dopamine receptor (Homo sapiens, UniProt P14416); experiment: biochemical
D(2) dopamine receptor (Homo sapiens, UniProt P14416), sequence (P14416 whole entry): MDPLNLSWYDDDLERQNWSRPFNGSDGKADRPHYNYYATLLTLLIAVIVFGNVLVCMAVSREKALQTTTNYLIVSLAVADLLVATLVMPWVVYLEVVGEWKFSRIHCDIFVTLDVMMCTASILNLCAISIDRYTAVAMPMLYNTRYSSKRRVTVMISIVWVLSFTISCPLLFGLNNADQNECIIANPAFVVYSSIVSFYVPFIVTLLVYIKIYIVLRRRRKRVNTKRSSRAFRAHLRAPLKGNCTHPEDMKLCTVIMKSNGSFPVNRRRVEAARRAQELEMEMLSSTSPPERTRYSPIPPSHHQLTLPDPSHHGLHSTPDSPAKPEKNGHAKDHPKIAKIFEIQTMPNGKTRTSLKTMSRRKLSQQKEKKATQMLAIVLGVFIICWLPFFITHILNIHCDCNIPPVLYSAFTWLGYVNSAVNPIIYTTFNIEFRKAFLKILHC
Description: Affinity for the Dopamine receptor D2S was determined using membranes from CHO cells labeled with [3H]spiperone

D(2) dopamine receptor [3] = target: T1, D(2) dopamine receptor (Rattus norvegicus, UniProt P61169)
T1 sequence (P61169 whole entry): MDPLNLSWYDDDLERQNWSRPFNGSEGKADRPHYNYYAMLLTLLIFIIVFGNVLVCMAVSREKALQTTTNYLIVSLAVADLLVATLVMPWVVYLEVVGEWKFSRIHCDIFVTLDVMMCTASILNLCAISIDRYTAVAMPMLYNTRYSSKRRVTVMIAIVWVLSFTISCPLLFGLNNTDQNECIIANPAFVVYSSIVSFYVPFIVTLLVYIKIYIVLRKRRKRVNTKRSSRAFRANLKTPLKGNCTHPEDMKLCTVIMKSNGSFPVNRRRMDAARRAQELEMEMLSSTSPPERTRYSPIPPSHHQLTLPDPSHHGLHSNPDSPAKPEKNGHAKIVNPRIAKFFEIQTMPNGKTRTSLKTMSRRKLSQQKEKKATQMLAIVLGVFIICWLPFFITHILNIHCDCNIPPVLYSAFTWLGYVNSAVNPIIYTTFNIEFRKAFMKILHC
Description: Affinity of compound for D2 receptor in rat striatal membrane determined for agonist state (high affinity state, D2 High) [3H]quinpirole as radioligand (in the absence of GTP and sodium)

D(4) dopamine receptor = target: T2, D(4) dopamine receptor (Homo sapiens, UniProt P21917); experiment: biochemical
T2 sequence (P21917 whole entry): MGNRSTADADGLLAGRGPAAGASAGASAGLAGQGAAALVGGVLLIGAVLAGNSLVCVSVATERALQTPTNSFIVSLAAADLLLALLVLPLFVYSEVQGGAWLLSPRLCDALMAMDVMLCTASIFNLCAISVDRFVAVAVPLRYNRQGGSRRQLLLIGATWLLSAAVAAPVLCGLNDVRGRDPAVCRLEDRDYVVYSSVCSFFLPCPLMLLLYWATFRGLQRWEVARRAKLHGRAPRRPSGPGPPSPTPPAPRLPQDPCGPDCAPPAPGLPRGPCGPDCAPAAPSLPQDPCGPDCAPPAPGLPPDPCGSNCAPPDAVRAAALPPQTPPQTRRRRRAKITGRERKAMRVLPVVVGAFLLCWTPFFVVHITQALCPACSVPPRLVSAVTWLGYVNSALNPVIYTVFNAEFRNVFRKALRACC
Description: Affinity for the Human Dopamine receptor D4 was determined using membranes from CHO cells labeled with [3H]spiperone

D(3) dopamine receptor = D(3) dopamine receptor (Homo sapiens, UniProt P35462); experiment: biochemical
D(3) dopamine receptor, sequence (P35462 whole entry): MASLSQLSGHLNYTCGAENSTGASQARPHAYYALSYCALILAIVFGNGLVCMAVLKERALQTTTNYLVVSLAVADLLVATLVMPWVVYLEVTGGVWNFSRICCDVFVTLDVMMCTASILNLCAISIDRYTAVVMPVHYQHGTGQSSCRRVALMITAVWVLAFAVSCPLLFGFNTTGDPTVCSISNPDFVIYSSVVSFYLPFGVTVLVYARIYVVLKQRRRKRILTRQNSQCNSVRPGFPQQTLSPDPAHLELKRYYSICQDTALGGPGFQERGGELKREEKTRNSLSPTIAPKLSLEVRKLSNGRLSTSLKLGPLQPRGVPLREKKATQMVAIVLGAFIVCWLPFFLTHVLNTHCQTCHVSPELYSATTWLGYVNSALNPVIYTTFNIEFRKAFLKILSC
Description: Affinity for the Human Dopamine receptor D3 was determined using membranes from CHO cells labeled with [3H]spiperone

D(2) dopamine receptor [4] = target: T1, D(2) dopamine receptor; remark: listed apart in the source
Description: Affinity of compound for Dopamine receptor D2 in rat striatal membrane determined for antagonist state (low affinity state, D2 Low) with [3H]spiperone (using ketanserin to exclude 5-HT2 receptor binding) in the presence of GTP and sodium

D(2) dopamine receptor (Rattus norvegicus), sequence (P61169 whole entry, looked up): as the sequence (P61169 whole entry) above

Ratio [1]	Ki (D(2) dopamine receptor [2])	Ki (D(2) dopamine receptor [3])	Ki (D(4) dopamine receptor)	Ki (D(3) dopamine receptor)	Ki (D(2) dopamine receptor [4])	SMILES
69						Oc1nc2c3c(ccc2[nH]1)CC[C@H](CNCc1ccccc1)O3
12						Oc1nc2c3c(ccc2[nH]1)CC[C@@H](CNCc1ccccc1)O3
	5 nM	0.14 nM	10 nM	1 nM	7.01 nM	O=c1[nH]c2ccc3c(c2[nH]1)OC(CNCc1ccccc1)CC3 (racemic)
	132 nM	5.75 nM	37 nM	263 nM	65.1 nM	FC(F)(F)c1nc2ccc3c(c2[nH]1)OC(CNCc1ccccc1)CC3 (racemic)
	67 nM	5.45 nM	313 nM	81 nM	67.5 nM	O=c1[nH]c2ccc3c(c2[nH]1)O[C@H](CNCc1ccccc1)CC3
11						FC(F)(F)c1nc2c3c(ccc2[nH]1)CCC(CNCc1ccccc1)O3 (racemic)
50						Oc1nc2c3c(ccc2[nH]1)CCC(CNCc1ccccc1)O3 (racemic)
42	9.3 nM		359 nM	2.4 nM		O=C1Cc2c(ccc3c2O[C@@H](CNCc2ccccc2)CC3)N1
24	107 nM		2170 nM	34 nM		c1ccc(CNC[C@H]2CCc3ccc4[nH]ccc4c3O2)cc1
	3 nM	0.07 nM	7 nM	0.4 nM	4.81 nM	O=c1[nH]c2ccc3c(c2[nH]1)O[C@@H](CNCc1ccccc1)CC3
